Like-named read-outs stand apart in the source and are kept apart here. Each block holds one compound with its values, some of them ahead of it.
Legend:
[1] = Oral (maternal and offspring feeding) or neonatal s.c. administration of monosodium glutamate to Wistar rats; assay type: in vivo
Description: The effects of oral administration of GLU were investigated in 32 pregnant rats and their offspring up to day 90 of life, in the animal facilities of the Department of Physiology, Medical School, Universidad Complutense, Madrid, Spain. The study was conducted in accordance with the principles and procedures outlined in the NIH Guide for the Care and Use of Laboratory Animals. Pregnant Wistar rats were kept under controlled conditions of light (12 h light/12 h darkness) and temperature (21+/−2C.°), and were fed with tap water and rat chow (Panlab, Barcelona, Spain) ad libitum.
At day 14 of pregnancy, the animals were divided into four groups (n=8), and either received no extra monosodium glutamate (MSG) (control, group 1), or 2.5 g MSG (group 2) or 5 g MSG per day (group 3), up to the end of the weaning period. 2.5 g, respectively 5 g MSG accounted for some 10%, respectively 20% of dry weight of the average daily food ration. After weaning and gender separation, MSG feeding was continued in the offspring at the same concentrations. A fourth group of animals received no MSG, but their offspring was injected with MSG 4 mg/g body weight s.c., at neonatal age as described earlier (Hermanussen, (1996) loc. cit.). Due to the existence of two gender groups a total of 8 experimental groups were obtained with n=6-9 for each group of females and males. All litter was weighed at weekly intervals, and the amount of food consumed was registered daily. Offspring was sacrificed half at day 30 and the rest at day 90 of life.
Half of the animals were killed by decapitation at day 30 and the other half at the end of the observation period at day 90. Anterior pituitaries were removed, and trunk blood was collected. Serum samples and anterior pituitaries after being weighted, were kept at −80° C., for hormonal determinations by specific radioimmunoassays (RIA). Pituitary homogenates were obtained by manual glass homogenizers, and processed in saline after thawing in the moment of the measurement.
Plasma GH levels and pituitary GH content were determined by RIA as previously described.^21 Pituitary homogenates were diluted 1:5000 for determination. Reagents were kindly provided by the National Institute of Diabetes, Digestive and Kidney Diseases (NIDDK). The standard used was rat GH RP2. The sensitivity of the curve was 2 ng/ml and the intraassay coefficient of variation was 5.7%. Plasma IGF I concentrations were measured using a commercially available rat RIA kit (DSL-2900, Diagnostic Systems Laboratories, INC). The sensitivity of the assay was 20 ng/ml, and the intraassay coefficients of variation for mean serum concentrations of 323, 772 and 1604 ng/ml were 5.9%, 6.1% and 3.8%, respectively.
Values are expressed as mean +/−SEM. […] To determine differences in final weight or hormonal levels a two-way ANOVA test was performed. Differences among groups were subjected to a post-hoc comparison by using Tukey HSD for unequal N test. Statistics were executed using Statistica program. The significance level was determined to be p<0.05.

[2] = Preliminary clinical trial of memantine in obese, otherwise healthy patients; assay type: in vivo, human
Description: The patients experienced an initial loss of body weight of 1 to 3 kg within a 7 day period. Further weight loss is observed during the course of administration over a longer period of time, see appended FIG. 6.
FIG. 6. Percent body weight decline in seven obese and one overweight subjects (6 females, 2 males) during a two month therapeutical trial with memantine (Axura®, Merz Pharmaceuticals GmbH), 5-10 mg in the morning, and 5-20 mg late in the afternoon (Patient […] initial body weight 126.6 kg, […] initial body weight 90.6 kg, Re initial body weight 93.5 kg, Br initial body weight 122.3 kg, Ku initial body weight 111.0 kg, Ho initial body weight 77.6 kg, Sk (male) initial body weight 148.6 kg, Le (male) initial body weight 109.6 kg).
The following preliminary and limited clinical trials have been carried out in the private practice of the inventor. The trials with memantine are carried out since Feb. 2, 2005, in eight obese, but otherwise healthy patients, 6 females, and 2 males (Table 1; FIG. 6).

[3] = cited from earlier work
[4] = doses 100 to 1400 mg; seven of 13 female patients; cited from earlier work
[5] = 5 g MSG per day, day 90 of life, p<0.01

food uptake [1, 5]: almost twofold
water uptake [1, 5]: threefold
weight increments during weaning ([1]; MSG feeding to the mothers maintained during weaning, p<0.01): subnormal
IGF-1 serum levels ([1]; compared with the GH results, day 30 and day 90 of life): Almost identical results
birth weight of the offspring ([1]; maternal feeding with 2.5 g MSG per day, compared to controls): no birth weight modification
birth weight of the offspring ([1]; maternal feeding with 5 g MSG per day, p<0.01): severe birth weight reduction
appetite ([1]; medium MSG diet (2.5 g MSG per day) and particularly high MSG diet (5 g MSG per day)): marked voracity
serum GH levels ([1]; medium MSG diet (2.5 g MSG per day), day 30 of life, p<0.01): low
GH plasma levels of the offspring ([1]; neonatally injected with MSG 4 mg/g body weight s.c., day 30 and day 90 of life, p<0.05): low
Compound: N[C@@H](CCC(=O)O)C(=O)[O-].[Na+] [MSG, monosodium glutamate]
appetite ([1]; MSG injected animals, compared to controls): did not show significantly increased appetite
serum GH levels ([1]; high MSG diet (5 g MSG per day), day 30 and day 90 of life, p<0.05): as low or even lower than those of MSG injected animals

Compound: CC12CC3CC(C)(C1)CC(N)(C3)C2 [memantine]
late afternoon or evening binge-eating disorders (patient report) ([2]; already at the second day of treatment): complete disappeared
side effects ([2]; initial treatment period): Apart from short moments of mild dizziness at the first day, and mild constipation, there were no side effects
appetite (patient report) ([2]; obese patients on memantine): significant decrease in appetite
Weight (kg) after treatment ([2]; patient eight, 93.5 kg, BMI 32.6 before treatment, 56 days of treatment): 91.3 kg
Weight (kg) after treatment ([2]; patient five, 90.6 kg, BMI 33.3 before treatment, 49 days of treatment): 86.6 kg
Weight (kg) after treatment ([2]; patient four, 109.6 kg, BMI 31.7 before treatment, 54 days of treatment): 99.4 kg
Weight (kg) after treatment ([2]; patient one, 111.0 kg, BMI 38.6 before treatment, 56 days of treatment): 104.4 kg
Weight (kg) after treatment ([2]; patient seven, 77.6 kg, BMI 27.5 before treatment, 77 days of treatment): 71.4 kg
Weight (kg) after treatment ([2]; patient six, 126.6 kg, BMI 43.3 before treatment, 67 days of treatment): 111.3 kg
Weight (kg) after treatment ([2]; patient three, 122.3 kg, BMI 42.8 before treatment, 40 days of treatment): 117.5 kg
Weight (kg) after treatment ([2]; patient two, 148.6 kg, BMI 38.3 before treatment, 25 days of treatment): 144.8 kg

Compound: CC1(C)O[C@@H]2[C@@H](CO[C@@]3(COS(N)(=O)=O)OC(C)(C)O[C@@H]23)O1 [topiramate]
weight loss ([3]; 64 mg/d, 6 months): 5.0%
weight loss ([3]; 96 mg, 6 months): 4.8%
weight loss ([3]; 192 mg, 6 months): 6.3%
weight loss ([3]; 384 mg, intention-to-treat population, 6 months, placebo 2.6%): 6.3%
weight loss ([3]; 384-mg dose, completers): up to 8.5%
weight loss [4]: > 5 kg
